Laboratory results published in ChEMBL document CHEMBL5518186, “Discovery of the cereblon-recruiting tubulin PROTACs effective in overcoming Taxol resistance in vitro and in vivo” (Eur J Med Chem, 2024).
Active and inactive are the calls of the source. The calls are words filed in the database; no cut-off is given here.

Tests used:
A549 [1] = test: Antitumor activity against human A549 cells xenografted in nude mouse assessed as decrease in tumor weight at 10 mg/kg, ip administered once every 2 days for 23 days by Vernier caliper method; format: functional, organism-based; settings: time 23.0 day
[2] = Toxicity in nude mouse xenografted with human A549 cells assessed as body weight loss at 10 mg/kg, ip administered once every 2 days for 23 days and measured every 3 days; format: organism-based; settings: in vivo, 552 h, time 23 day
A549/TR [3] = test: Induction of cell cycle arrest in human A549/Taxol cells assessed as accumulation of cells at S phase at 1 uM incubated for 24 hrs by PI staining based flow cytometry analysis (reference value: 2.85%); format: functional
A549/TR [4] = test: Induction of cell cycle arrest in human A549/Taxol cells assessed as accumulation of cells at G0/G1 phase at 1 uM incubated for 24 hrs by PI staining based flow cytometry analysis (reference value: 77.86%); format: functional
A549/TR [5] = test: Inhibition of cell growth in human A549/Taxol cells incubated for 72 hrs by SRB method; format: functional, cell-based
A549 [6] = test: Antitumor activity against human A549 cells xenografted in nude mouse assessed as decrease in tumor volume at 10 mg/kg, ip administered once every 2 days for 23 days by Vernier caliper method; format: functional, organism-based; settings: time 23.0 day
[7] = Toxicity in nude mouse xenografted with human A549/Taxol cells assessed as body weight loss at 10 mg/kg, ip administered once every 2 days for 23 days and measured every 3 days; format: organism-based, A549/TR; settings: in vivo, 552 h, time 23 day
A549 [8] = test: Antitumor activity against human A549 cells xenografted in nude mouse assessed as tumor growth inhibition at 10 mg/kg, ip administered once every 2 days for 23 days by Vernier caliper method; format: functional; settings: A549, 552 h, time 23 day, read-out: TGI
A549/TR [9] = test: Induction of apoptosis in human A549/Taxol cells at 1 uM incubated for 48 hrs by Annexin V-FITC/PI staining based flow cytometry analysis; format: functional
A549/TR [10] = test: Induction of cell cycle arrest in human A549/Taxol cells assessed as accumulation of cells at G2/M phase at 1 uM incubated for 24 hrs by PI staining based flow cytometry analysis (reference value: 17.02%); format: functional
A549/TR [11] = test: Antitumor activity against human A549/Taxol cells xenografted in nude mouse assessed as tumor growth inhibition at 10 mg/kg, ip administered once every 2 days for 23 days by Vernier caliper method; format: functional; settings: 552 h, time 23 day, read-out: TGI
A549 [12] = test: Induction of cell cycle arrest in human A549 cells assessed as accumulation of cells at S phase at 0.02 uM incubated for 24 hrs by PI staining based flow cytometry analysis (reference value: 2.85%); format: functional
A549 [13] = test: Induction of cell cycle arrest in human A549 cells assessed as accumulation of cells at G0/G1 phase at 0.02 uM incubated for 24 hrs by PI staining based flow cytometry analysis (reference value: 66.75%); format: functional
A549 [14] = test: Induction of cell cycle arrest in human A549 cells assessed as accumulation of cells at G2/M phase at 0.02 uM incubated for 24 hrs by PI staining based flow cytometry analysis (reference value: 31.86%); format: functional
A549 [15] = test: Antiproliferative activity against human A549 cells incubated for 72 hrs; format: functional, cell-based; settings: A549, 72 h
A549/TR [16] = test: Induction of cell cycle arrest in human A549/Taxol cells assessed as accumulation of cells at G2/M phase at 0.1 uM incubated for 24 hrs by PI staining based flow cytometry analysis (reference value: 17.02%); format: functional
A549/TR [17] = test: Induction of cell cycle arrest in human A549/Taxol cells assessed as accumulation of cells at S phase at 0.1 uM incubated for 24 hrs by PI staining based flow cytometry analysis (reference value: 2.85%); format: functional
A549/TR [18] = test: Induction of cell cycle arrest in human A549/Taxol cells assessed as accumulation of cells at G0/G1 phase at 0.1 uM incubated for 24 hrs by PI staining based flow cytometry analysis (reference value: 77.86%); format: functional
A549/TR [19] = test: Induction of apoptosis in human A549/Taxol cells at 0.1 uM incubated for 48 hrs by Annexin V-FITC/PI staining based flow cytometry analysis; format: functional

| IC50 (A549/TR [5]) | SMILES | Activity (A549 [1]) | Activity [2] | Activity (A549/TR [3]) | Activity (A549/TR [4]) | Activity (A549 [6]) | Activity [7] | inhibition in vivo at 10 mg/kg (A549 [8]) | Activity (A549/TR [9]) | Activity (A549/TR [10]) | inhibition in vivo at 10 mg/kg (A549/TR [11]) | Activity (A549 [12]) | Activity (A549 [13]) | Activity (A549 [14]) | IC50 (A549 [15]) | Activity (A549/TR [16]) | Activity (A549/TR [17]) | Activity (A549/TR [18]) | Activity (A549/TR [19]) |
| --- | --- | --- | --- | --- | --- | --- | --- | --- | --- | --- | --- | --- | --- | --- | --- | --- | --- | --- | --- |
| 1030 nM | CC(=O)O[C@H]1C(=O)[C@@]2(C)[C@H]([C@H](OC(=O)c3ccccc3)[C@]3(O)C[C@H](OC(=O)[C@H](O)[C@@H](NC(=O)c4ccccc4)c4ccccc4)C(C)=C1C3(C)C)[C@]1(OC(C)=O)CO[C@@H]1C[C@@H]2O [PACLITAXEL] | Active | Non-Toxic | 5.77% | 20.43% | Active | Non-Toxic | 28.5% | 22.7% | 74.23% | 52% | 6.1% | 10.8% | 83.1% | – | – | – | – | – |
| – | COc1ccc(/C=C\c2cc(OC)c(OC)c(OC)c2)cc1O [COMBRETASTATIN A4] | – | – | – | – | – | – | – | – | – | – | – | – | – | 5 nM | 64.76% | 17.89% | 21.17% | 26.9% |
